From ChEMBL document CHEMBL3112496, “C1,C2-ether derivatives of the Amaryllidaceae alkaloid lycorine: retention of activity of highly lipophilic analogues against cancer cells” (Bioorg Med Chem Lett, 2014)

Legend:
[1] = test system: T98G; assay: Growth inhibition of human T98G cells by MTT assay; assay type: functional
[2] = test system: MCF7; assay: Growth inhibition of human MCF7 cells by MTT assay; assay type: functional
[3] = Growth inhibition of human Hs683 cells by MTT assay; assay type: functional; conditions: Hs 683
[4] = test system: B16-F10; assay: Growth inhibition of mouse B16F10 cells by MTT assay; assay type: functional
[5] = test system: A549; assay: Growth inhibition of human A549 cells by MTT assay; assay type: functional
[6] = test system: SK-MEL-28; assay: Growth inhibition of human SK-MEL-28 cells by MTT assay; assay type: functional
[7] = Lipophilicity, log P of the compound; assay type: physicochemical; conditions: octanol/water

| GI50 [2] [µM] | GI50 [4] [µM] | GI50 [5] [µM] | GI50 [6] [µM] | SMILES | GI50 [1] [µM] | GI50 [3] [µM] | logP [7] |
| --- | --- | --- | --- | --- | --- | --- | --- |
| 82 | 34 | 54 | 59 | C=Cc1cccc2c1N(C)Cc1cc3c(cc1-2)OCO3 | 89 | > 100 |  |
| 4.2 | 4.2 | 5.5 | 8.7 | C1=C2CCN3Cc4cc5c(cc4[C@H]([C@H](OC/C=C/c4ccccc4)[C@H]1OC/C=C/c1ccccc1)[C@@H]23)OCO5 | 22 | 11 |  |
| 3.8 | 4.2 | 1.5 | 14 | O[C@H]1[C@H]2c3cc4c(cc3CN3CCC(=C[C@@H]1OC/C=C/c1ccccc1)[C@H]23)OCO4 | 10 | 8.6 |  |
| 32 | 28 | 23 | 52 | C#CCO[C@H]1[C@H]2c3cc4c(cc3CN3CCC(=C[C@@H]1OCC#C)[C@H]23)OCO4 | 68 | 27 |  |
| 28 | 27 | 4.2 | 33 | C1=C2CCN3Cc4cc5c(cc4[C@H]([C@H](OCC4CC4)[C@H]1OCC1CC1)[C@@H]23)OCO5 | 37 | 23 | 1.19 |
| 25 | 8 | 5.7 | 22 | C1=C2CCN3Cc4cc5c(cc4[C@H]([C@H](OCC4CCC4)[C@H]1OCC1CCC1)[C@@H]23)OCO5 | 18 | 14 |  |
| > 100 | 39 | 43 | > 100 | CO[C@H]1[C@H]2c3cc4c(cc3CN3CCC(=C[C@@H]1O)[C@H]23)OCO4 | 64 | > 100 |  |
| 44 | 38 | 29 | 68 | COCCO[C@H]1[C@H]2c3cc4c(cc3CN3CCC(=C[C@@H]1OCCOC)[C@H]23)OCO4 | 33 | > 100 |  |
| 74 | 40 | 26 | 91 | COCCO[C@H]1C=C2CCN3Cc4cc5c(cc4[C@H]([C@@H]1O)[C@@H]23)OCO5 | 47 | > 100 |  |
| 88 | 85 | 72 | > 100 | C1=C2CCN3Cc4cc5c(cc4[C@H]([C@H](OCc4cccnc4)[C@H]1OCc1cccnc1)[C@@H]23)OCO5 | 87 | > 100 |  |
| 80 | 66 | 40 | 81 | O[C@H]1[C@H]2c3cc4c(cc3CN3CCC(=C[C@@H]1OCc1cccnc1)[C@H]23)OCO4 | 75 | > 100 |  |
| 32 | 34 | 11 | 49 | C#CCCCCO[C@H]1C=C2CCN3Cc4cc5c(cc4[C@H]([C@@H]1O)[C@@H]23)OCO5 | 34 | 55 |  |
| 23 | 9.5 | 15 | 24 | CC(C)[Si](O[C@H]1[C@H]2c3cc4c(cc3CN3CCC(=C[C@@H]1O)[C@H]23)OCO4)(C(C)C)C(C)C | 20 | 24 |  |
| 31 | 9 | 5.9 | 32 | C#CCCCO[C@H]1C=C2CCN3Cc4cc5c(cc4[C@H]([C@@H]1O[Si](C(C)C)(C(C)C)C(C)C)[C@@H]23)OCO5 | 16 | 40 |  |
| 28 | 6.4 | 21 | 26 | C#CCCCCO[C@H]1[C@H]2c3cc4c(cc3CN3CCC(=C[C@@H]1O[Si](C(C)C)(C(C)C)C(C)C)[C@H]23)OCO4 | 24 | 35 |  |
| > 100 | 40 | 31 | 92 | CO[C@H]1C=C2CCN3Cc4cc5c(cc4[C@H]([C@@H]1O)[C@@H]23)OCO5 [HIPPPAMINE] | 84 | 36 |  |

More lines, now with the values behind:

| SMILES | GI50 [2] [µM] | GI50 [4] [µM] | GI50 [5] [µM] | GI50 [6] [µM] | GI50 [1] [µM] | GI50 [3] [µM] | logP [7] |
| --- | --- | --- | --- | --- | --- | --- | --- |
| C#CCCCO[C@H]1[C@H]2c3cc4c(cc3CN3CCC(=C[C@@H]1O[Si](C(C)C)(C(C)C)C(C)C)[C@H]23)OCO4 | 27 | 7.6 | 19 | 28 | 21 | 33 |  |
| CCO[C@H]1[C@H]2c3cc4c(cc3CN3CCC(=C[C@@H]1OCC)[C@H]23)OCO4 | 17 | 18 | 4 | 35 | 8.1 | 5.9 |  |
| CCCO[C@H]1[C@H]2c3cc4c(cc3CN3CCC(=C[C@@H]1OCCC)[C@H]23)OCO4 | 19 | 13 | 4.9 | 19 | 24 | 8.1 |  |
| C#CCO[C@H]1C=C2CCN3Cc4cc5c(cc4[C@H]([C@@H]1O)[C@@H]23)OCO5 | > 100 | 42 | 48 | > 100 | > 100 | 81 |  |
| CC(C)=CCO[C@H]1[C@H]2c3cc4c(cc3CN3CCC(=C[C@@H]1OCC=C(C)C)[C@H]23)OCO4 | 9.5 | 5.3 | 4.4 | 10 | 24 | 9.7 |  |
| O[C@H]1[C@H]2c3cc4c(cc3CN3CCC(=C[C@@H]1OCC1CCC1)[C@H]23)OCO4 | 37 | 22 | 27 | 41 | 50 | 50 |  |
| CO[C@H]1[C@H]2c3cc4c(cc3CN3CCC(=C[C@@H]1O[Si](C(C)C)(C(C)C)C(C)C)[C@H]23)OCO4 | 28 | 8.9 | 19 | 28 | 19 | 41 |  |
| CSCO[C@H]1C=C2CCN3Cc4cc5c(cc4[C@H]([C@@H]1O)[C@@H]23)OCO5 | 70 | 51 | 60 | > 100 | > 100 | 86 |  |
| COCO[C@H]1[C@H]2c3cc4c(cc3CN3CCC(=C[C@@H]1OCOC)[C@H]23)OCO4 | 55 | 31 | 33 | 78 | 53 | > 100 |  |
| COCO[C@H]1C=C2CCN3Cc4cc5c(cc4[C@H]([C@@H]1O)[C@@H]23)OCO5 | 85 | 55 | 35 | 85 | 48 | > 100 |  |
| C1=C2CCN3Cc4cc5c(cc4[C@H]([C@H](OC[C@@H]4CO4)[C@H]1OC[C@@H]1CO1)[C@@H]23)OCO5 | 77 | 70 | 39 | 70 | 44 | 44 |  |
| O[C@H]1[C@H]2c3cc4c(cc3CN3CCC(=C[C@@H]1OC[C@@H]1CO1)[C@H]23)OCO4 | > 100 | 51 | 54 | > 100 | 49 | > 100 |  |
| C=CCCO[C@H]1C=C2CCN3Cc4cc5c(cc4[C@H]([C@@H]1O)[C@@H]23)OCO5 | 7.7 | 21 | 11 | 42 | 39 | 67 |  |
| C#CCCCO[C@H]1[C@H]2c3cc4c(cc3CN3CCC(=C[C@@H]1OCCCC#C)[C@H]23)OCO4 | 22 | 17 | 1.3 | 25 | 7.1 | 32 |  |
| C#CCCCO[C@H]1C=C2CCN3Cc4cc5c(cc4[C@H]([C@@H]1O)[C@@H]23)OCO5 | 21 | 2.6 | 0.6 | 19 | 4.2 | 69 |  |
| C#CCCCCO[C@H]1[C@H]2c3cc4c(cc3CN3CCC(=C[C@@H]1OCCCCC#C)[C@H]23)OCO4 | 16 | 10 | 2.8 | 16 | 6.8 | 29 |  |
| C#CCCCCO[C@H]1C=C2CCN3Cc4cc5c(cc4[C@H]([C@@H]1O[Si](C(C)C)(C(C)C)C(C)C)[C@@H]23)OCO5 | 19 | 8.7 | 4.2 | 25 | 13 | 23 |  |
| C=CCO[C@H]1[C@H]2c3cc4c(cc3CN3CCC(=C[C@@H]1O[Si](C(C)C)(C(C)C)C(C)C)[C@H]23)OCO4 | 5 | 0.8 | 4.5 | 2.4 | 6.6 | 7.6 |  |
| C#CCO[C@H]1[C@H]2c3cc4c(cc3CN3CCC(=C[C@@H]1O[Si](C(C)C)(C(C)C)C(C)C)[C@H]23)OCO4 | 8.3 | 6.2 | 3.6 | 8.2 | 4.9 | 27 |  |
| O[C@H]1[C@H]2c3cc4c(cc3CN3CCC(=C[C@@H]1O)[C@H]23)OCO4 [LYCORINE] | 10.9 | 2.6 | 3 | 3.7 | 5.2 | 2.1 | -0.78 |
